The source made the active and inactive calls. The calls are words filed in the database; no cut-off is given here.
Key:
[1] = biological target: T1, Aurora kinase A (Homo sapiens) (UniProt O14965); experiment: Binding affinity to wild-type human partial length AURKA (E122 to K401 residues) expressed in mammalian expression system assessed as fraction of unbound kinase to substrate at 0.1 uM after 1 hr by KinomeScan assay
T1 sequence (whole entry): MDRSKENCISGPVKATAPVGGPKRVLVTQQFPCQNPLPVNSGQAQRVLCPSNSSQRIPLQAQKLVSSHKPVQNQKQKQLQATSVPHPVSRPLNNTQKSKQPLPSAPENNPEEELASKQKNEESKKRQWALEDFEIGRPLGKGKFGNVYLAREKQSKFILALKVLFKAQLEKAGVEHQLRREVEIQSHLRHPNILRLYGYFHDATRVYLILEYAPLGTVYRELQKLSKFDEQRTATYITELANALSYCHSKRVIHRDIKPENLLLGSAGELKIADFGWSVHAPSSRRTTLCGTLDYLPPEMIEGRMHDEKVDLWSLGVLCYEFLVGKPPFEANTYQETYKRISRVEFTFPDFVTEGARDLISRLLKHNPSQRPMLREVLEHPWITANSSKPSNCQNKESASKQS

[2] = biological target: T1, Aurora kinase A (Homo sapiens); experiment: Binding affinity to wild-type human partial length AURKA (E122 to K401 residues) expressed in mammalian expression system assessed as fraction of unbound kinase to substrate at 10 uM after 1 hr by KinomeScan assay
[3] = biological target: Serine/threonine-protein kinase B-raf (Homo sapiens) (UniProt P15056); experiment: Binding affinity to wild-type human partial length BRAF (S429 to E741 residues) expressed in mammalian expression system assessed as fraction of unbound kinase to substrate at 10 uM after 1 hr by KinomeScan assay
Sequence of Serine/threonine-protein kinase B-raf (Homo sapiens) (P15056 whole entry, the tested form may be a part): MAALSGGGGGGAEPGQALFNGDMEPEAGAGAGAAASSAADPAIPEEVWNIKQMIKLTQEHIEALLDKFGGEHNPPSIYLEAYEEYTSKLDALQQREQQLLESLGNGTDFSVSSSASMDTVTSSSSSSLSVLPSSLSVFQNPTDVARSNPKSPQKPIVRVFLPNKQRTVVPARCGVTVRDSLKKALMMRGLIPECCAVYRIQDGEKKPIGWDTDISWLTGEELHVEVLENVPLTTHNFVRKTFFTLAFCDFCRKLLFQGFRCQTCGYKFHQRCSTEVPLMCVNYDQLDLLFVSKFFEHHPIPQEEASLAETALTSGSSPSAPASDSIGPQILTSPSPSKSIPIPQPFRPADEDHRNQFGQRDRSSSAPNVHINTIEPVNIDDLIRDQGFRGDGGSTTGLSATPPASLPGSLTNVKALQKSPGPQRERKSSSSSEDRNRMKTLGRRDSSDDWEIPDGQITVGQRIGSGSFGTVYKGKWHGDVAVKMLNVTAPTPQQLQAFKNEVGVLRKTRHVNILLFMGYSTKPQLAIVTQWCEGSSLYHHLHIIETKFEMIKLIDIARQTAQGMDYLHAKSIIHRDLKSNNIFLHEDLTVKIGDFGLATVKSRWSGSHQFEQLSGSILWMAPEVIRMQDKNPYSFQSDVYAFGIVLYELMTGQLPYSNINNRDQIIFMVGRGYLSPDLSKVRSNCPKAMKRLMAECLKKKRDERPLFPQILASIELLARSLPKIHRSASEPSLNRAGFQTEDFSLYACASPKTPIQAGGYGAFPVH

[4] = biological target: Cyclin-dependent kinase 2 (Homo sapiens) (UniProt P24941); experiment: Binding affinity to wild-type human full length CDK2 (M1 to L298 residues) expressed in bacterial expression system assessed as fraction of unbound kinase to substrate at 1 uM after 1 hr by KinomeScan assay
[5] = biological target: Glycogen synthase kinase-3 beta (Homo sapiens) (UniProt P49841); experiment: Binding affinity to full length wild type human GSK3beta (M1 to T433 residues) expressed in mammalian expression system assessed as fraction of unbound kinase to substrate at 10 uM after 1 hr by KinomeScan assay
Sequence of Glycogen synthase kinase-3 beta (Homo sapiens) (P49841 whole entry, looked up, the tested form may be a part): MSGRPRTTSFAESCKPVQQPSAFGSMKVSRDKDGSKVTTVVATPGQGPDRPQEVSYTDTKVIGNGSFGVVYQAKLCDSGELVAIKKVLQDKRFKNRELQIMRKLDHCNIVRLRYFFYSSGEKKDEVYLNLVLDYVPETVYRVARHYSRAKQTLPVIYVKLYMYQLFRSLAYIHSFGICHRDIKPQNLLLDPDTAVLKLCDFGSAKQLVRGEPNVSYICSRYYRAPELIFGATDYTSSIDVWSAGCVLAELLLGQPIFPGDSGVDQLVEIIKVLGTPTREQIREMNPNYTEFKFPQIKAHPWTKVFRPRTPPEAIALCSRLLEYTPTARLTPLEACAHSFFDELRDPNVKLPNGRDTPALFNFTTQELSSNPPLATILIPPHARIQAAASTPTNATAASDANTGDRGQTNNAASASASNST

[6] = biological target: T2, Tyrosine-protein kinase receptor TYRO3 (Homo sapiens) (UniProt Q06418); experiment: Binding affinity to wild-type human partial length TYRO3 (S497 to T814 residues) expressed in bacterial expression system assessed as fraction of unbound kinase to substrate at 10 uM after 1 hr by KinomeScan assay
T2 sequence (whole entry): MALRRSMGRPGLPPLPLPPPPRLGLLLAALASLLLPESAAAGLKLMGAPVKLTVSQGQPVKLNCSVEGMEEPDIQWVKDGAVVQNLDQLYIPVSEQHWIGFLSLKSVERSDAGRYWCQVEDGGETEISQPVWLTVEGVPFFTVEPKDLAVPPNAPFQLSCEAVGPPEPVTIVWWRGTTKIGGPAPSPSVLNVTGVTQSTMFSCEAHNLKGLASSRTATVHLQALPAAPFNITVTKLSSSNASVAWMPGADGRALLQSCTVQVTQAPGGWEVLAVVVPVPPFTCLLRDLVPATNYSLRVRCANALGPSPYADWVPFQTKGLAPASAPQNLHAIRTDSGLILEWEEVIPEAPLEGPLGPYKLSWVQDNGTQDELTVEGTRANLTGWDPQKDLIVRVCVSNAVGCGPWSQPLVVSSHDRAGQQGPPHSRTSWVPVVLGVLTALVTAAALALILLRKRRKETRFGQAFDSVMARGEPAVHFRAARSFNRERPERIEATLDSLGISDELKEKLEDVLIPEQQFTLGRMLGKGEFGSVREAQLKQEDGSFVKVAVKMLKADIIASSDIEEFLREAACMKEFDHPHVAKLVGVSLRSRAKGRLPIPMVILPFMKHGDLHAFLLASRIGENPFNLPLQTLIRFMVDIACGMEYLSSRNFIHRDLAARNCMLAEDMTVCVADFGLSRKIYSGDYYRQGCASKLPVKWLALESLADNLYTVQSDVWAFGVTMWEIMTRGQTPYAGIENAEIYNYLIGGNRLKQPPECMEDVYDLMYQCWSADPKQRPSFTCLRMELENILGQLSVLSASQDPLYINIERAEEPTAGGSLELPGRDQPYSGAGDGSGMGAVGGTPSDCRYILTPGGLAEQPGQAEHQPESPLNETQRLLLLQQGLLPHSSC

[7] = biological target: T3, Tyrosine-protein kinase Mer (Homo sapiens) (UniProt Q12866); experiment: Binding affinity to wild-type partial length human MER (R557 to L884 residues) expressed in bacterial expression system assessed as fraction of unbound kinase to substrate at 10 uM after 1 hr by KinomeScan assay
T3 sequence (whole entry): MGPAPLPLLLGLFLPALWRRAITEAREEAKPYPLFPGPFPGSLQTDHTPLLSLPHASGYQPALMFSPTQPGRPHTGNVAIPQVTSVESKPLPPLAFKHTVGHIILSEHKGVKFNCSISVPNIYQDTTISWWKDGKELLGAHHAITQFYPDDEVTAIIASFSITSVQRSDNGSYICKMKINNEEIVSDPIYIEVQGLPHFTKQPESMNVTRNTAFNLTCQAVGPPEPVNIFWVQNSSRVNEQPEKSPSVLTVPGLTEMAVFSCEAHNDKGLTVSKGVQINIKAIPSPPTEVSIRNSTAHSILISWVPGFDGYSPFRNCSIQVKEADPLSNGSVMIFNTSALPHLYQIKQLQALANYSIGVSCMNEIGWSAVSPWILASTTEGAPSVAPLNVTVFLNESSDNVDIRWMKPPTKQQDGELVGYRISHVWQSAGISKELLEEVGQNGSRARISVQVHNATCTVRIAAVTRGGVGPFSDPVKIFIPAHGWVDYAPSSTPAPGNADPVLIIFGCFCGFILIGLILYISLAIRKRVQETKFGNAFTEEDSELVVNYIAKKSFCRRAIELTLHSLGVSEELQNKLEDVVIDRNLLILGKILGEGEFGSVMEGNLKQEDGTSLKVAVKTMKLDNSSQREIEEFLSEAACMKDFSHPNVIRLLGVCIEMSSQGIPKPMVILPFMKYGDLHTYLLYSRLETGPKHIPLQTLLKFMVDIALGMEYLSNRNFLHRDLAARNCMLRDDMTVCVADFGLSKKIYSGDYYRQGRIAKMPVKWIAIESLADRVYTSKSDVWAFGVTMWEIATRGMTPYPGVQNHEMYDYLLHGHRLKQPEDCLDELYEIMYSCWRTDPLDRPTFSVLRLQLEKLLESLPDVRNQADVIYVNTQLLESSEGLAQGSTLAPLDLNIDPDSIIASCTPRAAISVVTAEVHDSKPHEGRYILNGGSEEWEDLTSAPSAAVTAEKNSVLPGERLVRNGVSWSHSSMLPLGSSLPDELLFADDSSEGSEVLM

[8] = species on record: Homo sapiens; experiment: Antiproliferative activity against human MGHU3 cells after 72 hrs by CellTiter-Glo assay; type: functional, cell-based

Compound	Activity [1]	Activity [2]	Activity [3]	Activity [4]	Activity [5]	Activity [6]	Activity [7]	Activity [8]
Cc1cnc2[nH]cnc2c1Oc1ccc(NC(=O)c2cccn(-c3ccc(F)cc3)c2=O)cc1F	1%	41%	18%	0%	0%	5%	99.1%	inactive
O=C(Nc1ccc(Oc2ccnc3[nH]cnc23)c(F)c1)c1cccn(-c2ccc(F)cc2)c1=O	5%	13%	58%	0%	6%	99.8%	99.6%	inactive
CC(C)c1nc2c(Oc3ccc(NC(=O)c4cccn(-c5ccc(F)cc5)c4=O)cc3F)ccnc2[nH]1	1%	12%	43%	95.5%	0%	92.4%	99.1%	inactive
O=C(Nc1ccc(Oc2c(Br)cnc3[nH]cnc23)c(F)c1)c1cccn(-c2ccc(F)cc2)c1=O	7%	45%	10%	0%	0%	10%	98.2%	
